Our source for the inhibition values is PMC7614683, “A small molecule PI3Kα activator for cardioprotection and neuroregeneration” (Nature, 2023).

Assay in all cases: SelectScreen Adapta
What all share (format): biochemical

Test [1] deals with CDK9/cyclin T1 (Homo sapiens, UniProt P50750). Here is the method:
(§1) 133 protein kinases and 7 lipid kinases were counterscreened, with 1938 used at 1 μM, using the Adapta, Lantha and Z-LYTE assays (SelectScreen Kinase Profiling Service; Thermofisher – experimental details of these assays can be found here: https://www.thermofisher.com/uk/en/home/industrial/pharma-biopharma/drug-discovery-development/target-and-lead-identification-and-validation/kinasebiology/kinase-activity-assays.html. The tree represention in KinMap[59] generated courtesy of Cell Signaling Technology, Inc. (www.cellsignal.com). mTORC1 (mTOR/RAPTOR/LST8) protein complex and ATM kinase and substrates were produced as previously described[57],[60]. Screening of 1938 was conducted using SuperSep Phos-Tag 50 μmol/l 100 x 100 x 6.6 mm 17-well (192-18001/199-18011) gels. For ATM assays, 100 nM ATM was incubated for 30 min at 30°C with 5 μM GST-p53 and 1 mM ATP, in the absence or presence of 200 μM 1938 in ATM Kinase Buffer (50 mM HEPES pH 7.5, 100 mM NaCl, 10% glycerol, 2 mM […], 5 mM MgCl2). As a positive control for ATM activation, the same reaction was carried out with 100 nM ATM/5 μM GST-p53/1 mM ATP in the presence of 100 nM Mre11-Rad50-Nbs1 (MRN) complex, a known activator of ATM[61]. For mTORC1 assays, 50 nM mTORC1 complex (mTOR/LST8/RAPTOR) was incubated for 3 h at 30°C with 15 μM 4E-BP1, 10 mM MgCl2 and 250 μM ATP, in the absence or presence of 200 μM 1938. As a ‘positive’ control, a higher concentration (150 nM) of mTORC1 complex (mTOR/LST8/RAPTOR) was incubated for 3 h at 30°C with 15 μM 4E-BP1, 10 mM MgCl2 and 250 μM ATP. Kinase reactions were quenched by addition of SDS-PAGE Loading Buffer (as per manufacturer’s instructions) and freezing at -20°C before being run on the Phos-tag gels at 150 V for 90 min. Gels were then stained using InstantBlue™ Coomassie, and quantified using BioRad Image Lab Software. Kinase assays were carried out in triplicate.

Test [2] deals with T1, GSG2 (Haspin) (Homo sapiens, UniProt Q8TF76).
T1 sequence (Q8TF76 1-798): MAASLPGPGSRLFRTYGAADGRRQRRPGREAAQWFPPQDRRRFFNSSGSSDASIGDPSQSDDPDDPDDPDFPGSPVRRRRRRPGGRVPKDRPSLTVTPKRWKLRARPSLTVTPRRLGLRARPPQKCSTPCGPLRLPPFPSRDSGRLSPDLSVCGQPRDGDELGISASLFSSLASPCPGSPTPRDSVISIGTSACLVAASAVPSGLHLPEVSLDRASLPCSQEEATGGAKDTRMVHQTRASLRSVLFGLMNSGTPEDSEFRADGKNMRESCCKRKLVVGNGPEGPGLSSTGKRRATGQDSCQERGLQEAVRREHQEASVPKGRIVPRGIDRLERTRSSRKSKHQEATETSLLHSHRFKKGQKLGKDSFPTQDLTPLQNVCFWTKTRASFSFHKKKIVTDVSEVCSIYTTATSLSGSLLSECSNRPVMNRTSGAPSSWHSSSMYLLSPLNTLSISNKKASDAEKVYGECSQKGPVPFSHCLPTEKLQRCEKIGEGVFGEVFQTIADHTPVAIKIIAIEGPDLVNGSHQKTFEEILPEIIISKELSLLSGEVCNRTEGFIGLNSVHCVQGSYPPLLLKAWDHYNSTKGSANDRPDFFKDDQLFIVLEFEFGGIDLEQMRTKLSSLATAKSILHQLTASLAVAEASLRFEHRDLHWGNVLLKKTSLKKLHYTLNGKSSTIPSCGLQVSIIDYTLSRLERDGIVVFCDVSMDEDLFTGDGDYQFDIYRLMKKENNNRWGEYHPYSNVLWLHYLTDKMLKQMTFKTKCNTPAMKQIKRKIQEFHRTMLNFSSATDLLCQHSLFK
Here is the method: as §1

Test [3] has as its target IRAK1 (Homo sapiens, UniProt P51617). As to the method: as §1
The target in test [4] is T2, NUAK1 (ARK5) (Homo sapiens, UniProt O60285).
T2 sequence (O60285 1-661): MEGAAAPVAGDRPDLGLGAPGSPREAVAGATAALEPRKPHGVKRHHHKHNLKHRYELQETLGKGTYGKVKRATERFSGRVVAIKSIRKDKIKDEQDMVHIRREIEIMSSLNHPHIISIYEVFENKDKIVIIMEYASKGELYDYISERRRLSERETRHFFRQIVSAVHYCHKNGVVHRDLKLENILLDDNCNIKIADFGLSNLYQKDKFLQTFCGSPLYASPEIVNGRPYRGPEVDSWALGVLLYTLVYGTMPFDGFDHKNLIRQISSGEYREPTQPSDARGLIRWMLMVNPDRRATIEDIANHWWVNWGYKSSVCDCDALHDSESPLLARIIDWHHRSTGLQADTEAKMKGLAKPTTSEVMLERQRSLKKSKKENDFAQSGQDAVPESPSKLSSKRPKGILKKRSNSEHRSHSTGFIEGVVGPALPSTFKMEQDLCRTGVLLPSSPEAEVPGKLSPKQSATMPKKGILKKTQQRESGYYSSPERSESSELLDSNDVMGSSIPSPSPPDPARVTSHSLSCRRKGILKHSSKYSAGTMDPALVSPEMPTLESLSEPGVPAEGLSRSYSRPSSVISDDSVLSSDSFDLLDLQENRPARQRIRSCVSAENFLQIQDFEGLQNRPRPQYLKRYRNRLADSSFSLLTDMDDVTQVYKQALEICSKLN
Here is the method: as §1

For test [5], the target named is PIK3C2A (PI3K-C2 alpha) (Homo sapiens, UniProt O00443). As to the method: as §1
Sequence of PIK3C2A (PI3K-C2 alpha) (O00443 whole entry): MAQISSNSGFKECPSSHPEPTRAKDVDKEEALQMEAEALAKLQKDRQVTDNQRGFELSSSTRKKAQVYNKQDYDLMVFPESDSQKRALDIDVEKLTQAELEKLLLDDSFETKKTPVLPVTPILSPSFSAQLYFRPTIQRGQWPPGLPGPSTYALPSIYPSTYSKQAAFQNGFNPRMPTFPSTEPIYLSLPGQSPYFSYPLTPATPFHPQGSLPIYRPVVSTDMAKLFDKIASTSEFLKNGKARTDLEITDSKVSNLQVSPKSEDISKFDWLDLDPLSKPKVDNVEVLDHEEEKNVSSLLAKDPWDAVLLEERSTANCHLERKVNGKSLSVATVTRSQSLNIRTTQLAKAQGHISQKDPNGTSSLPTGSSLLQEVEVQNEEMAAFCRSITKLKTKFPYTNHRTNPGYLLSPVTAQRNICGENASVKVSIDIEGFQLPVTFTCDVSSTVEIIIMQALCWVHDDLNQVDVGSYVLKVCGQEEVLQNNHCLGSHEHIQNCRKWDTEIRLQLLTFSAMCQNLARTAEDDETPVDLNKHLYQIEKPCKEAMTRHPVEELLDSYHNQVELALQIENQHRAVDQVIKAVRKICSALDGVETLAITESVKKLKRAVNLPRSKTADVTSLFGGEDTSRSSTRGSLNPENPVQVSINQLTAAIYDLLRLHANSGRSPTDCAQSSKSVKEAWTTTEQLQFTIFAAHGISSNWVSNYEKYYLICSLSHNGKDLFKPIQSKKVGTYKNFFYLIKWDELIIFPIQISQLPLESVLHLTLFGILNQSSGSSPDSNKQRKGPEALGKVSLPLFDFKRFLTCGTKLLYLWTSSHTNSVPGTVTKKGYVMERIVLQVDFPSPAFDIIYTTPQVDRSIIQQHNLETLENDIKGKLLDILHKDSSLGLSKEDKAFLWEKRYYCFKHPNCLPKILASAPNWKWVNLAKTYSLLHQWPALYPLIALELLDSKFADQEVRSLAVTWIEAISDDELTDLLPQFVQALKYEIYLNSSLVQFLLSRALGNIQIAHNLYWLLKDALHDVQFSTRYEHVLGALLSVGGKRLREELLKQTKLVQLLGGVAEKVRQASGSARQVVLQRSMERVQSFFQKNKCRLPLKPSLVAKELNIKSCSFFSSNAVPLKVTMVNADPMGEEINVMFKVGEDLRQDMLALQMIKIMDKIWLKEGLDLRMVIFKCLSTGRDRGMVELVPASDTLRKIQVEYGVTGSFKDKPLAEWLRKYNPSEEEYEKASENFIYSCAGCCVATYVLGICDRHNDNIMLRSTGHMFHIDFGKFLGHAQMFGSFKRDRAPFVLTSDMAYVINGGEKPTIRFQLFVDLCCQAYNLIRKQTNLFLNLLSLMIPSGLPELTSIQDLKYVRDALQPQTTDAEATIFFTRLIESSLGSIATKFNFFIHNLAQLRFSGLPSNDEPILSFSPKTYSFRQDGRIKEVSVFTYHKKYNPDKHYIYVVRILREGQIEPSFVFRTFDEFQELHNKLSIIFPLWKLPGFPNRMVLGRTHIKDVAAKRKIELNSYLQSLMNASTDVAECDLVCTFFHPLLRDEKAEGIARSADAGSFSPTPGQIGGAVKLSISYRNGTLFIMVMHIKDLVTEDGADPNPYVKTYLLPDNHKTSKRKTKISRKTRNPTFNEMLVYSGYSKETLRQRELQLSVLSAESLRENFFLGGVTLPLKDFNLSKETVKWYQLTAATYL
The target in test [6] is PIK3CD/PIK3R1 (p110 delta/p85 alpha) (Homo sapiens, UniProt O00329). Here is the method:
as §1

Test [7] addresses PIK3CG (p110 gamma) (Homo sapiens, UniProt P48736). Here is the method:
as §1

Read-outs that look alike come from different tables or passages of the source.

Sequence of PIK3CD/PIK3R1 (p110 delta/p85 alpha) (O00329 whole entry): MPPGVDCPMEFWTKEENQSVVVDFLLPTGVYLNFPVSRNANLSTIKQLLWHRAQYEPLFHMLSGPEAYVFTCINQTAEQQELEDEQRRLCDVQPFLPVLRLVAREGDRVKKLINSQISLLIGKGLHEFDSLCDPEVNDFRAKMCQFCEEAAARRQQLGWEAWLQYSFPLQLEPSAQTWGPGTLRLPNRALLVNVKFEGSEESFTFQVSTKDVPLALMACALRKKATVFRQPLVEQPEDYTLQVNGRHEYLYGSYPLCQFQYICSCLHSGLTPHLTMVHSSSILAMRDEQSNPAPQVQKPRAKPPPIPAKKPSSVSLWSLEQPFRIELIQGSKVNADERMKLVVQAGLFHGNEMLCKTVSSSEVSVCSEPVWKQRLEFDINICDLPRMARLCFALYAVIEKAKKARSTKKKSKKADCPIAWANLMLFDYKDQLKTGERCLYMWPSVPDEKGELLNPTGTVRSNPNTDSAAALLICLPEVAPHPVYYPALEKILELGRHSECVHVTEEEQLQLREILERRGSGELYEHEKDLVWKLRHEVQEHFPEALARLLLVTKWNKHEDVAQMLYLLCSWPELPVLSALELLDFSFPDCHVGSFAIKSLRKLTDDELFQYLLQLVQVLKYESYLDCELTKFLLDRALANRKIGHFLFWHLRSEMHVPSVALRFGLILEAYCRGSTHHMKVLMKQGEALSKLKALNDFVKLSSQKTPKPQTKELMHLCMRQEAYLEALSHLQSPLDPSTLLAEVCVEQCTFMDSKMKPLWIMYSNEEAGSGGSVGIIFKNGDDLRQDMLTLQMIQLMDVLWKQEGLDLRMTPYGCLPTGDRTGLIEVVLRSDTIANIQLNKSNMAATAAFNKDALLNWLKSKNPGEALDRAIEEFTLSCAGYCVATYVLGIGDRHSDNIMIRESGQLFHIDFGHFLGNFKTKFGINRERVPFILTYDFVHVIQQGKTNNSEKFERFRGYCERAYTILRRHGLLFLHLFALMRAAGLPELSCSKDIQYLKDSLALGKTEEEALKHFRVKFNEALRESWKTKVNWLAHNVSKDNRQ
Sequence of PIK3CD/PIK3R1 (p110 delta/p85 alpha) (P27986 whole entry partner): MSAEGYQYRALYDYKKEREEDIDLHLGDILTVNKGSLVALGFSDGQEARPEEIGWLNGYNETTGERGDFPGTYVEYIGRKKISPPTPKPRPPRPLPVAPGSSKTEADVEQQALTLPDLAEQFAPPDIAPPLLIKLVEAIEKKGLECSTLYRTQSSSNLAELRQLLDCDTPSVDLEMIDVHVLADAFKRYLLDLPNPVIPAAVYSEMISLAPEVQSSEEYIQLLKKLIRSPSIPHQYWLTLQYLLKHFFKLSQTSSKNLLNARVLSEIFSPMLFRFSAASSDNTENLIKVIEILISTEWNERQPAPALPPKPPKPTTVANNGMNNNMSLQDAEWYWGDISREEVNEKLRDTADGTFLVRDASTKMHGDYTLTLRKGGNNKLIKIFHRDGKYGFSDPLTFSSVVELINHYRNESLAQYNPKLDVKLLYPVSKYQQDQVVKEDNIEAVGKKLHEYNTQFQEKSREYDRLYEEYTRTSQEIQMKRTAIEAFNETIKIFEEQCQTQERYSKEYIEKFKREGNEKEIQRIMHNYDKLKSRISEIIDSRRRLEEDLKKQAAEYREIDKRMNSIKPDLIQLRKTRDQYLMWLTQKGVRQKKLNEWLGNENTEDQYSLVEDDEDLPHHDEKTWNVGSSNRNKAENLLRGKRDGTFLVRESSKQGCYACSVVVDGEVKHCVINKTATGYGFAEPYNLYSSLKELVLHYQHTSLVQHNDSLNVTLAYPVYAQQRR
Sequence of IRAK1 (P51617 whole entry): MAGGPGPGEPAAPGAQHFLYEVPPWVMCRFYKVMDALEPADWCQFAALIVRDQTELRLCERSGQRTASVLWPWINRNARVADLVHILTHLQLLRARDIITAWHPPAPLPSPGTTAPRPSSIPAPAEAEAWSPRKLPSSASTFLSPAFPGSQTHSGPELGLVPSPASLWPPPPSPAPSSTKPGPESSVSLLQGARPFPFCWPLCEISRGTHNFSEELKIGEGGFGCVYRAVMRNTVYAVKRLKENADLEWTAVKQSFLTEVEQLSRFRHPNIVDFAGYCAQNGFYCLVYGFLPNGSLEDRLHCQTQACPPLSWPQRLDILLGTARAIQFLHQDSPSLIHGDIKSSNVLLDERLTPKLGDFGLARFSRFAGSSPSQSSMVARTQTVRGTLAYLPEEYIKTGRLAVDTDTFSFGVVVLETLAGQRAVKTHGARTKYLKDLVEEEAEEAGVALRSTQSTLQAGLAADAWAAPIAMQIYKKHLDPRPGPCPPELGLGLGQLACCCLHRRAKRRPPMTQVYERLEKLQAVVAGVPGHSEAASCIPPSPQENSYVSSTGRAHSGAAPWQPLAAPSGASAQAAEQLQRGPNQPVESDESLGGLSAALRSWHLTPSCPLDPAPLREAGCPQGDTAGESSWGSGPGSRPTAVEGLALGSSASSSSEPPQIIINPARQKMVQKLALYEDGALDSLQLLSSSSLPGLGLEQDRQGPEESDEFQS

With `CCN1CCN(c2ccc(Nc3cc(Nc4cccc5c4N(C(C)=O)CC5)ccn3)cc2)CC1` [Compound 1938], the inhibition at 1 µM is 10% in test [1] (read-out: % Inhibition Point 1); 2% in test [1] (read-out: % Inhibition Point 2); 6% in test [1] (read-out: % Inhibition mean); -18% in test [2] (read-out: % Inhibition Point 1); 2.17% in test [2] (read-out: % Inhibition Point 2); -8% in test [2] (read-out: % Inhibition mean). Moreover, the inhibition at 1 µM was 29% in test [3] (read-out: % Inhibition Point 1); 20% in test [3] (read-out: % Inhibition Point 2); 25% in test [3] (read-out: % Inhibition mean); 45% in test [4] (read-out: % Inhibition Point 1); 39% in test [4] (read-out: % Inhibition Point 2); 42% in test [4] (read-out: % Inhibition mean). Moreover, the inhibition at 1 µM in test [5] (read-out: % Inhibition Point 1) is 2%; in test [5] (read-out: % Inhibition Point 2), 3.23%; in test [5] (read-out: % Inhibition mean) it was 2.57%; in test [6] (read-out: % Inhibition Point 1), 11%; in test [6] (read-out: % Inhibition Point 2), -5%; in test [6] (read-out: % Inhibition mean) it was 2.81%. The inhibition at 1 µM in test [7] (read-out: % Inhibition Point 1) came out at 4.3%; in test [7] (read-out: % Inhibition Point 2) it was 13%; in test [7] (read-out: % Inhibition mean) it was 8.53%.

Usually inhibition stands for the drop in the measured response relative to a control, in per cent.
